Molecular target: T1, purified rat lung membrane-bound aminopeptidase P (Rattus norvegicus, UniProt Q99MA2)
T1 construct: from tissue; host or cells: rat lung
T1 sequence (Q99MA2 23-674): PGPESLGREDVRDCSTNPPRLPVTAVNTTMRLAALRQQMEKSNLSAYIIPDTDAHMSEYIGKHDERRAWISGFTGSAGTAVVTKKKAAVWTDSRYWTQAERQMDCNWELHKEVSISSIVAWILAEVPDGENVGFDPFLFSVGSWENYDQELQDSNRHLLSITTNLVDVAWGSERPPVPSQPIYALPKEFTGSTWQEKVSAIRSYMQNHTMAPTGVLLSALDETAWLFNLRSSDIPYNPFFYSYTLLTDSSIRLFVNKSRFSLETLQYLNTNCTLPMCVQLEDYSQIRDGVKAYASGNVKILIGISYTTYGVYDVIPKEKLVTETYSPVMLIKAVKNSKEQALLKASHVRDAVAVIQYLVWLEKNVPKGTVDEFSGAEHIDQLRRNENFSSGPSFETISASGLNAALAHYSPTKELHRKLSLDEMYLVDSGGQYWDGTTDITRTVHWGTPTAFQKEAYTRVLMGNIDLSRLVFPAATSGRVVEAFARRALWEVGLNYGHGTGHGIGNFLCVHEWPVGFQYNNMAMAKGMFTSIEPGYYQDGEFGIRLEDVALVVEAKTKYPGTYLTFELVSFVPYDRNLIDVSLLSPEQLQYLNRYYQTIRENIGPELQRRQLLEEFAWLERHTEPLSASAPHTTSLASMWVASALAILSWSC
Assay: Aminopeptidase P inhibition, release of arginine from Arg-Pro-Pro (fluorescent assay)
Type: biochemical
Experimental: The IC50 of the compound of the present invention in relation to aminopeptidase P was also determined. […] The specificity of the compound of the present invention for other aminopeptidases was similarly determined as described in the Experimental Procedures herein.
Enzymes--Membrane-bound aminopeptidase P was purified to homogeneity from bovine lung (14) and from rat lung. Partially purified membrane-bound aminopeptidase P from human lung was obtained by treatment of lung microsomes with phosphatidylinositol-specific phospholipase C (B. thuringiensis) (ICN, Costa Mesa, Calif.) followed by centrifugation as described previously (14). Membrane dipeptidase was purified from rat lung microsomes (manuscript in preparation). Recombinant E. coli aminopeptidase P (22) and purified lamb kidney prolyl oligopeptidase (23) were generally supplied by Dr. Tadashi Yoshimoto (Nagasaki University). Purified porcine kidney prolidase and purified porcine kidney aminopeptidase M was obtained from Sigma (St. Louis, Mo.).
Enzyme Kinetics--Aminopeptidase P activity was determined by measuring the release of arginine from Arg-Pro-Pro by a fluorescent assay described previously (14). […] Each mixture was run in duplicate. Aliquots were removed from each incubation mixture at various times and assayed for the amount of arginine present to determine the reaction velocity. In general, reaction velocities were calculated from data representing less than 20% cleavage of substrate. Ki and Ki ' (=αKi) were determined from plots of 1/v versus concentration of inhibitor "i" (26) and S/v versus concentration of inhibitor "i" (27), respectively. These parameters were also determined from the slope replot and 1/v-intercept replot, respectively, of the 1/v versus 1/S plot (28). […] The values from the two treatments of the data were averaged for each experiment. Experiments for each enzyme preparation were performed twice and the results averaged.

Question: How did the “dependence of inhibition on Mn+2” value turn out when `C[C@H](NC(=O)[C@@H]1CCCN1C(=O)[C@@H]1CCCN1C(=O)[C@@H](O)[C@H](N)Cc1ccccc1)C(N)=O` [apstatin, N-[(2S, 3R)-3-amino-2-hydroxy-4-phenylbutanoyl]-L-prolyl-L-prolyl-Lalaninamide] was run?
Answer: not dependent on the presence of Mn^+2

Question: And the reversibility of inhibition (100-fold dilution of a preincubated enzyme-apstatin mixture)?
Answer: indicating reversibility

Question: What about the “effect of preincubation on degree of inhibition (time-dependent or slow-tight binding inhibition)” value (preincubation of rat aminopeptidase P for up to 2 hr. at 4° C. before addition of substrate) of the same compound?
Answer: did not increase the degree of inhibition

Question: What about the type of inhibition (rat lung aminopeptidase P) of the same compound?
Answer: linear mixed-type

Question: What about the “α (αKi = equilibrium constant for enzyme-inhibitor binding at infinite substrate concentration)” value (rat lung, purified membrane-bound form) of the same compound?
Answer: 5.1

Question: And the Ki (rat lung, purified membrane-bound form, substrate Arg-Pro-Pro, 0.1 M Hepes pH 8.0, 39° C.)?
Answer: 2600 nM

— patent publication US5656603A (Loyola University of Chicago, priority 1995, dated 1997)
